“Also recorded” adds a separate entry of the source.
Tests used:
[1] = system: Lactobacillus mali crude enzyme solution including the enzyme including the amino acid sequence of SEQ ID NO: 1; assay: Glucose transfer to steviol glycoside by crude enzyme solution (HPLC); type: biochemical; conditions: 6% substrate, 6% white sugar, 50 mM sodium acetate buffer pH 5.0, 40 °C, 24 hours
Protocol: 6% Rebaudioside A (purecircle) or 6% Stevioside (carbosynth), and 6% white sugar (CJ CheilJedang) were dissolved in a 50 mM sodium acetate buffer (pH 5.0), and then the Lactobacillus mali crude enzyme solution including the enzyme including the amino acid sequence of SEQ ID NO: 1 was added thereto, and allowed to react at 40° C. for 24 hours. Thereafter, whether glucosylated Rebaudioside A or glucosylated Stevioside was produced was confirmed by HPLC, and the results are shown in FIGS. 2 to 5. Meanwhile, HPLC analysis conditions are as follows:
FIGS. 2 and 4 show HPLC analysis results before the enzyme reaction, and FIGS. 3 and 5 show HPLC analysis results after the enzyme reaction.

[2] = system: enzyme including the amino acid sequence of SEQ ID NO: 1; assay: Glucose transfer to steviol glycoside by purified recombinant enzyme (HPLC); type: biochemical, Lactobacillus mali; conditions: 6% substrate, 6% white sugar, 50 mM sodium acetate buffer pH 5.0, 40 °C, 24 hours, purified enzyme of Example 5-1
Protocol: A polynucleotide encoding the amino acid sequence of SEQ ID NO: 1 was prepared by a polynucleotide synthesis method (Bioneer Corp.), and the obtained polynucleotide was inserted into a pBT7-N-His vector, which was then transformed into E. coli BL21(DE3). The transformed E. coli was smeared on a plate medium containing ampicillin to obtain a recombinant strain (microorganism).
The recombinant E. coli strain was seeded in 5 mL of an LB medium containing ampicillin, and seed culture was carried out at 37° C. until optical density at 600 nm reached 2.0. The seed culture broth was added to 500 mL of an LB medium containing ampicillin, and main culture was carried out. Thereafter, when optical density at 600 nm reached 0.4, 0.1 mM isopropyl β-D-thiogalactopyranoside (IPTG) was added to induce mass-expression of the enzyme including the amino acid sequence of SEQ ID NO: 1. During the process, an agitation speed was 180 rpm, and culture temperature was maintained at 37° C. After IPTG addition, the agitation speed was 120 rpm, and culture temperature was maintained at 16° C.
The culture broth was centrifuged at 10,000×g at 4° C. for 20 minutes to obtain a cell pellet. A 50 mM tris-HCl buffer solution was added to the pellet, and re-suspended as a cell solution. The cell solution was sonicated using a sonicator. […]

[3] = type: physicochemical
Protocol: The solubility of steviol glycoside and glucosylated steviol glycoside was measured.
Specifically, the solubility of Rebaudioside A (RA), Stevioside (STV), glucosylated Rebaudioside A (RA-Glu) of Example 4, and glucosylated Stevioside (STV-Glu) of Example 4 was measured, respectively.
Each 6 g of Rebaudioside A, Stevioside, glucosylated Rebaudioside A, and glucosylated Stevioside was mixed with 10 mL, and then dissolved by sonication at 50° C. for 60 minutes. The resultant was incubated for 1 week in a water bath at 5° C., 15° C., 25° C., 35° C., 45° C., or 55° C. Thereafter, the resulting solution was centrifuged at 12,000 rpm for 10 minutes, and 1 mL of the supernatant was collected and dried in an oven at 105° C. to measure the solubility, which is shown in Table 4.

[4] = Panel evaluation of actual sweetness and quality of sweetness; conditions: for Actual Sweetness / Evaluation of Quality of Sweetness: dissolved in water, provided to panels
Source text: The known material (i.e., α-(1,4) glucosylated Rebaudioside A) and the α-(1,6) glucosylated Rebaudioside A of Example 4 were independently dissolved in water and provided to panels for evaluation of actual sweetness and quality of sweetness.

[5] = Sugar hydrolysis activity by reducing sugar determination method (DNS method); type: biochemical; conditions: 200 mM sugar solution, 40 °C, 10 minutes
Protocol: To confirm the presence of the desired enzyme, sugar hydrolysis activity of each fraction was examined by a reducing sugar determination method (DNS method).
A 200 mM sugar solution and each fraction were mixed at a ratio of 1:1 in a 50 mM sodium acetate buffer, and allowed to react in a water bath at 40° C. for 10 minutes, followed by inactivation at 100° C. A DNS reagent was added thereto at a ratio of 1:3, and then mixed and allowed to react at 100° C. for 5 minutes, and then DNS reaction was immediately stopped on ice. Thereafter, optical density (OD) of the DNS reagent was measured at 575 nm, and the activity was confirmed from a constructed fructose standard curve. At this time, 1 unit is defined by the amount (mL) of an enzyme that produces 1 μmole of fructose per 1 minute.

Molecule | Conversion rate into glucosylated steviol glycoside [1] | Solubility (%) [3] | Solubility as compared with Stevioside and Rebaudioside A, respectively [3] | Actual Sweetness [4] | other results
C=C1C[C@@]23CC[C@H]4[C@@](C)(CCC[C@@]4(C)C(=O)O[C@@H]4O[C@H](CO)[C@@H](O)[C@H](O)[C@H]4O)[C@@H]2CC[C@]1(O[C@@H]1O[C@H](CO)[C@@H](O)[C@H](O[C@@H]2O[C@H](CO)[C@@H](O)[C@H](O)[C@H]2O)[C@H]1O[C@@H]1O[C@H](CO)[C@@H](O)[C@H](O)[C@H]1O)C3 [RA, Rebaudioside A, reference compound] | about 90% | – | – | – | Conversion rate into glucosylated Rebaudioside A [2]: about 90%
C=C1C[C@@]23CC[C@H]4[C@@](C)(CCC[C@@]4(C)C(=O)O[C@@H]4O[C@H](CO[C@H]5O[C@H](CO)[C@@H](O)[C@H](O)[C@H]5O)[C@@H](O)[C@H](O)[C@H]4O)[C@@H]2CC[C@]1(O[C@@H]1O[C@H](CO)[C@@H](O)[C@H](O[C@@H]2O[C@H](CO)[C@@H](O)[C@H](O)[C@H]2O)[C@H]1O[C@@H]1O[C@H](CO)[C@@H](O)[C@H](O)[C@H]1O)C3 [RA-Glu, glucosylated Rebaudioside A] | – | ≥ 40 ↑ % | remarkably increased solubility | 26 | Evaluation of Quality of Sweetness ([4]; listed as α-(1,6) glucosylated Rebaudioside A): better quality of sweetness; also recorded: Gives sweet taste in the beginning, has; Sweetness as compared with the α-(1,4) glucosylated Rebaudioside A ([4]; summary of Table 5): high sweetness
C=C1C[C@@]23CC[C@H]4[C@@](C)(CCC[C@@]4(C)C(=O)O[C@@H]4O[C@H](CO)[C@@H](O)[C@H](O)[C@H]4O)[C@@H]2CC[C@]1(O[C@@H]1O[C@H](CO)[C@@H](O)[C@H](O)[C@H]1O[C@@H]1O[C@H](CO)[C@@H](O)[C@H](O)[C@H]1O)C3 [STV, Stevioside, reference compound] | about 90% | – | – | – | –
C=C1C[C@@]23CC[C@H]4[C@@](C)(CCC[C@@]4(C)C(=O)O[C@@H]4O[C@H](CO[C@H]5O[C@H](CO)[C@@H](O)[C@H](O)[C@H]5O)[C@@H](O)[C@H](O)[C@H]4O)[C@@H]2CC[C@]1(O[C@@H]1O[C@H](CO)[C@@H](O)[C@H](O)[C@H]1O[C@@H]1O[C@H](CO)[C@@H](O)[C@H](O)[C@H]1O)C3 [STV-Glu, glucosylated Stevioside] | – | ≥ 40 ↑ % | remarkably increased solubility | – | –
α-(1,4) glucosylated Rebaudioside A [reference compound] | – | – | – | 19 | Evaluation of Quality of Sweetness [4]: Bitter taste is stronger than sweet taste,
75 kDa protein of Fraction No. 2: 75 kDa protein purified from Lactobacillus mali culture, identified by LC-MS as amino acid sequence SEQ ID NO: 1; glucosyltransferase (protein, listed as Lactobacillus mali) MDQMVLETQQWLNKTYGGVSGFGSVTEDGLTGWGTVYGLTRALQHELGITGLVNNFGPTSKQKFNNIAKTIVVGYTGNIAYIIQGGFWCKGITPGEFDGKFSADTASAVTTMKTKAGLADTSSSVDGNFMAALLNMSSFDLLTGGDSKVREMQQQLNHDYLAYTGILPCDGIYQRDTNSALIYALQAEEKISTSVATGAYGATTKKDTPTVKEGTTNNFVRILQWGLYVNNKAYTGAFDGVYDSAVVAAVKEFEETMALDSTDGTSAGVDIFMSLLTSAGNPDRSAIACDTSYQLNATRVATLKNAGYSIVGRYLTGTVGSGTSERAKNLTTDEITAITTGGLKIFPIYQDGASDKEAYFTAAQGKTDGTKAVYAAQDLGFKEGVVIYFAVDADIQAGDIAGSAKVYFEALYDIVTSYGYEVGIYGTRNVSATIISAGLATKAFISDMSTGYSGNLGYSIPDEWAFDQFSEISIGDFAIDKDATTSARETATGSFGVGGESGYGNAEDLAKINTIIDALSQKKNFSYLSGLKIEKTSKEYEIPGFAVDFYVQVKFEASVSEPGDNVGVVYNVSNGKFESDFTDTIAGVVALSDEINKEDINSALTELSSLINNGQIWVEPVTKGSDAGIALHIKSTFDHTLDSGETIELEYEIIIDEIFHKIEVVPTGVPNTTANDYNSLFPNGIKEFVGFSIVAGLATGGIYYVVTAVGATAAVVTTSILALIALLKNNDTGV | – | – | – | – | Sugar hydrolysis activity [5]: had sugar hydrolysis activity

— patent US12404532B2, “Composition for producing glucosylated steviol glycoside including glucosyltransferase and method of producing glucosylated steviol glycoside using the same” (CJ CHEILJEDANG CORPORATION, priority 2019, dated 2025)
